Reference: patent publication US20100285146A1, “PEPTIDES AND METHODS FOR THE TREATMENT OF SYSTEMIC LUPUS ERYTHEMATOSUS” (priority 2007, published 2010)
No end group written: not given here.

How the values were obtained:
[1] = tested on: C72 murine anti-DNA antibody; assay: Anti-peptide direct binding ELISA with C72; details: for C72 Binding: direct binding ELISA, footnote: O.D. after one (1) hour; for binding of C72 murine anti-DNA antibody to laminin peptides (FIG. 1): ELISA, C72 conditioned medium in various dilutions
Description: (§1) Wells were coated with 10 μg/ml of the peptides, blocked with 1% BSA (bovine serum albumin) in PBS (pH 7.4), reacted with appropriately diluted plasma or monoclonal antibodies, incubated with anti-human or anti-mouse immunoglobulin enzyme conjugated to alkaline phosphatase and detected by addition of substrate (Sigma 100 Phosphatase Substrate Tablets) and color development using an Organon Teknika Microwell System spectrometer at wavelength of 405 nm.
The interaction of the C72 murine anti-DNA antibody with laminin peptides was analyzed by ELISA as described above. The C72 conditioned medium was diluted in PBS in various dilutions.
(§2) The peptides of the present invention were tested for their ability to bind directly with C72 murine anti-DNA antibodies and B3 human anti-DNA antibodies according to the method described hereinabove.

[2] = tested on: B3 human anti-DNA antibodies; assay: Anti-peptide direct binding ELISA with B3; details: direct binding ELISA; footnote: O.D. after two (2) hours
Description: as §1
The human monoclonal anti-DNA antibodies DIL 6 and B3 were derived from lupus patients by the hybridoma technique. […] In FIGS. 3 and 4, the peptides are referred to as denoted above or as follows; AS30 is R27, AS19 is R35, AS35 is R26, AS17 is R28 and AS6 is R18.
as §2

[3] = molecular target: C72 anti-DNA antibody; assay: Competitive inhibition of C72 binding to R38 (5100); set-up: species or system murine; details: concentration of competitive inhibitor giving 50% inhibition, ELISA
Description: A competitive inhibition study compared how each of the peptides competes with R38 (5100) for binding to the C72 anti-DNA antibody. Conducted according to the methods described hereinabove, the results of the study are disclosed in Table 4 below and are further elucidated by reference to FIG. 10.

[4] = tested on: C72 murine anti-DNA antibody; assay: Competitive inhibition of the binding of C72 to 5200; details: after incubation of C72 with the inhibiting agent
Description: The binding of C72 to 5200 was tested before and after incubation with 5200, R38, R18, Heparin, DNA and DNase. […] The percent inhibition is the percent reduction of the O.D. after incubation with the inhibiting agent.

[5] = tested on: MRL/1pr/1pr urine antibodies; assay: Binding of murine urinary immunoglobulins, MRL/1pr/1pr urine; set-up: species or system mice; details: pooled urine of MRL/1pr/1pr mice
Description: as §1
(§3) Thus, pooled urine from at least 5 mice (either MRL/1pr/1pr or control mice, e.g. BALB/c) was added to wells coated with R38′ (5200), R18 or DNA as described above and bound 5200 assayed by ELISA.
(§4) Each group is comprised of pooled urine.

[6] = tested on: BALB/c urinary immunoglobulins; assay: Binding of murine urinary immunoglobulins, BALB/c control urine; details: pooled urine of BALB/c control mice
Description: as §1, §3, §4

[7] = tested on: urine antibodies of lupus patients; assay: Urine anti-peptide antibody ELISA in patients; format: binding, human
[8] = molecular target: C72 murine anti-DNA antibody; assay: competitive inhibition ELISA: peptide in solution against binding of C72 to coated 5100

Row | Molecule | C72 Binding [1] | B3 Binding [2] | IC50 [8] | other results
1 | DNA |  |  |  | inhibition of the binding of C72 to 5200 (FIG. 2) [4]: inhibition; Binding of murine urinary immunoglobulins to antigen [5]: U.D.; Binding of murine urinary immunoglobulins to antigen [6]: U.D.
2 | KEGYKVRLDLNITLEF [Peptide 5101] | 1.11 O.D. | 0.1 O.D. |  | 50% Inhibition of C72 binding to mouse R38 (5100) [3]: 5 µg/mL
3 | LDLNITEFRTTSK [Peptide 5103] | 0.03 O.D. | 0.02 O.D. |  | 
4 | VRLDLNITLEFR [Peptide 5102] | 0.1 O.D. | 0.02 O.D. |  | 50% Inhibition of C72 binding to mouse R38 (5100) [3]: 30 µg/mL
5 | heparin |  |  |  | inhibition of the binding of C72 to 5200 (FIG. 2) [4]: inhibition
6 | KEGYKVRLDLNITLAFRTTSK [5110 peptide (Ala subst. of 5100 a.a. 15)] |  |  | 0.7 mg/L | 
7 | KEGYKVQSDVNITLEFRTSSQ [5300 peptide, human R38] |  |  | 85 mg/L | 
8 | KEGYKVRLDLNITLEFRTTSK [R38 peptide (5100), mouse R38] |  |  | 10 mg/L | 
9 | KEGYKVRLALNITLEFRTTSK [5109 peptide (Ala subst. of 5100 a.a. 9)] |  |  | 0.7 mg/L | 
10 | KAGYKVRLALNITLAFRTTSK [5108 peptide (Ala subst. of 5100 at all negative a.a.)] |  |  | 2 mg/L | 
11 | KEGYKVRLDLNITLEFETTSK [5107 peptide (charge subst. to neg. at 5100 a.a. 17)] |  |  | 85 mg/L | 
12 | KEGYKVRLDLNITLEF [5101 peptide (Res. 1-16 of 5100)] |  |  | 5 mg/L | 
13 | KEGYKVRLDLNTTLEFRTTSK [5200 peptide (R38′), mouse R38 analog] |  |  | 10 mg/L | 
14 | KEGYKVELDLNITLEFRTTSK [5106 peptide (charge subst. to neg. at 5100 a.a. 7)] |  |  | 2.5 mg/L | 
15 | VRLDLNITLEFR [5102 peptide (Res. 6-17 of 5100)] |  |  | 30 mg/L | 

Now from value to molecule, other results behind:

Row | C72 Binding [1] | B3 Binding [2] | IC50 [8] | Molecule | other results
16 | 0.05 O.D. | 0.01 O.D. |  | CC[C@H](C)[C@H](NC(=O)[C@H](CC(N)=O)NC(=O)[C@H](CC(C)C)NC(=O)[C@H](CC(=O)O)NC(=O)[C@H](CC(C)C)NC(=O)[C@H](CCCNC(=N)N)NC(=O)[C@@H](NC(=O)[C@H](CCCCN)NC(=O)[C@H](Cc1ccc(O)cc1)NC(=O)CNC(=O)[C@H](CCC(=O)O)NC(=O)[C@@H](N)CCCCN)C(C)C)C(=O)N[C@H](C(=O)N[C@@H](CC(C)C)C(=O)N[C@@H](CCC(=O)O)C(=O)N[C@@H](Cc1ccccc1)C(=O)N[C@@H](CCC(=O)O)C(=O)N[C@H](C(=O)N[C@H](C(=O)N[C@@H](CO)C(=O)N[C@@H](CCCCN)C(=O)O)[C@@H](C)O)[C@@H](C)O)[C@@H](C)O [Peptide 5107] | 50% Inhibition of C72 binding to mouse R38 (5100) [3]: 85 µg/mL
17 | 0.06 O.D. | 0.02 O.D. |  | AEGYAVALDLNITLEFATTSA [Peptide 5104] | 
18 | 0.01 O.D. |  |  | DGKWHTVKTEYIKRKAF [Peptide R28, laminin derived peptide, residues 2779-2795] | 
19 | 2.75 O.D. | 1.93 O.D. |  | KAGYKVRLALNITLAFRTTSK [Peptide 5108] | 50% Inhibition of C72 binding to mouse R38 (5100) [3]: 2 µg/mL; Urine anti-5108 O.D. (Mean + S.E.) ([7]; Example 9, renal disease absent, 2 samples): 0.064 ± 0.05 O.D.; Urine anti-5108 O.D. (Mean + S.E.) ([7]; Example 9, renal disease present, 22 samples): 0.672 ± 0.1 O.D.
20 | 1.8 O.D. |  |  | KATPMLKMRTSFHGCIK [Peptide R37, laminin derived peptide, residues 2615-2631] | binding of C72 murine anti-DNA antibody to laminin peptides (FIG. 1) [1]: binding
21 | 0.07 O.D. | 0.02 O.D. |  | KEGYKVELDLNITLEFETTSK [Peptide 5105] | 
22 | 1.9 O.D. | 0.16 O.D. |  | KEGYKVELDLNITLEFRTTSK [Peptide 5106] | 50% Inhibition of C72 binding to mouse R38 (5100) [3]: 2.5 µg/mL
23 | 0.03 O.D. | 0.03 O.D. |  | KEGYKVQSDLNITLEFRTSSQ [Peptide 5300] | 50% Inhibition of C72 binding to mouse R38 (5100) [3]: 85 µg/mL
24 | 2.72 O.D. | 1.94 O.D. |  | KEGYKVRLALNITLEFRTTSK [Peptide 5109] | 50% Inhibition of C72 binding to mouse R38 (5100) [3]: 0.7 µg/mL
25 | 2.8 O.D. | 1.83 O.D. |  | KEGYKVRLDLNITLAFRTTSK [Peptide 5110] | 50% Inhibition of C72 binding to mouse R38 (5100) [3]: 0.7 µg/mL
26 | 0.75 O.D. |  |  | KQNCLSSRASFRGCVRNLRLSR [Peptide R30, laminin derived peptide, residues 3011-3032] | binding of C72 murine anti-DNA antibody to laminin peptides (FIG. 1) [1]: binding
27 | 0.01 O.D. |  |  | RPVRHAQCRVCDGNSTNPRERH [Peptide R18, peptide from the N-terminal of mouse laminin alpha chain, residues 42-63, reference compound] | Binding of murine urinary immunoglobulins to antigen [5]: U.D.; Binding of murine urinary immunoglobulins to antigen [6]: U.D.
28 | 0.01 O.D. | 0.01 O.D. |  | VQSDVNITLEFR [Peptide 5111] | 
